Drawing on PubChem BioAssay (NCI), this text covers TGI for 25 compounds.

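Following 48 hours of exposure in 96-well plates, responses at five concentrations were used to interpolate endpoints linearly. Definition used: TGI = concentration required for complete inhibition of growth.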

What all share (assay): DTP human tumour cell line panel, 48 h
In assay [1] the test system is 786-0 renal.
Assay [2] relates to A549 NSCLC.
Assay [3] concerns IGROV1 ovarian.
Assay [4] has as its system LOX IMVI melanoma.
Assay [5] relates to MOLT-4 leukemia.
Assay [6] concerns OVCAR-3 ovarian.
Assay [7] has as its system SF-295 CNS.
Assay [8] has as its system SF-539 CNS.
In assay [9] the test system is SK-OV-3 ovarian.
Assay [10] concerns UO-31 renal.

For orientation: TGI means the concentration giving total growth inhibition. Low readings indicate greater sensitivity of the cells, high ones lower sensitivity of the cells. As for `COc1cc(C2SC(C)C(=O)N2c2ccc(-c3csc(NS(=O)(=O)c4ccc(Cl)c(OC)c4)n3)cc2)ccc1O` (stereo not given), the TGI in assay [1], in assay [2], in assay [3], in [4], in assay [5] and in assay [6] was more than 100 µM in each case. The TGI in assay [7], in [8], in [9] and in [10] was more than 100 µM throughout.

For `CCN(CC)C(=S)Nc1ccc(-c2cc3ccc(O)cc3oc2=O)cc1`, the concentration for total growth inhibition (TGI) in assay [1] was more than 100 µM; in assay [2], more than 100 µM; in [3], more than 100 µM; in assay [4] it was more than 100 µM; in assay [5] it was more than 100 µM; in assay [6], 78.3 µM. Also, the total growth inhibition concentration (TGI) in [7], in assay [8], in [9] and in assay [10] was more than 100 µM throughout.

As for `Cc1cn(CCCCCCC2=NCCCN2)c(=O)[nH]c1=O`, the total growth inhibition concentration (TGI) in assay [1], in assay [2], in [3], in assay [4], in assay [5] and in assay [6] was more than 100 µM each time. Further, the total growth inhibition concentration (TGI) in [7], in [8], in assay [9] and in [10] was more than 100 µM each time.

As for `COC(=O)CCc1ccc2c(c1)C(=O)CC2`, the TGI in assay [1], in assay [2], in [3], in [4], in assay [5] and in assay [6] was more than 100 µM each time. The total growth inhibition concentration (TGI) in assay [7], in [8], in assay [9] and in [10] was more than 100 µM throughout.

For `CC1=NN(C(=O)CC(=O)Nc2ccccc2Cl)C(=O)C1N=Nc1ccc(S(=O)(=O)c2ccc(N=NC3C(=O)N(C(=O)CC(=O)Nc4ccccc4Cl)N=C3C)cc2)cc1` (stereo not given), the TGI in [1], in [2], in assay [3], in assay [4], in [5] and in [6] was more than 100 µM each time. Moreover, the TGI in assay [7], in assay [8], in assay [9] and in assay [10] was more than 100 µM in each case.

With `C/C(=C\c1ccccc1)C(=O)NCc1ccc(C(=O)NCCc2ccccc2)cc1`, the total growth inhibition concentration (TGI) in assay [1], in assay [2], in [3], in assay [4], in assay [5] and in assay [6] was more than 100 µM throughout. Also, the concentration for total growth inhibition (TGI) in assay [7] is 98.8 µM; in assay [8] it was more than 81.9 µM; in [9], 51.8 µM; in [10], more than 100 µM.

Turning to `O=c1sc2c(s1)-c1sc(=O)sc1SS2`, the concentration for total growth inhibition (TGI) in assay [1], in assay [2], in assay [3], in assay [4], in assay [5] and in assay [6] was more than 100 µM throughout. Further, the TGI in assay [7] is more than 100 µM; in [8], 99.1 µM; in assay [9] it was more than 100 µM; in assay [10], more than 100 µM.

Take `COc1ccc(/C=C/C(=O)c2cc(C(C)(C)C)c(O)c(C(C)(C)C)c2)cc1OC`: the TGI in assay [1] is 27.4 µM; in assay [2], more than 100 µM; in [3], more than 100 µM; in [4], 29.3 µM; in [5], more than 49.6 µM; in assay [6] it was more than 100 µM. In addition, the concentration for total growth inhibition (TGI) in [7] was more than 71.1 µM; in [8], 52.1 µM; in assay [9], more than 100 µM; in assay [10] it was 57.9 µM.

Turning to `CCCC(C)n1c(C)nc2c1C(=O)c1ccccc1C2=O` (stereo not given), the TGI in assay [1] is more than 100 µM; in assay [2], more than 100 µM; in [3], more than 100 µM; in assay [4], 23.6 µM; in [5], more than 100 µM; in [6] it was 85.1 µM. The TGI was more than 100 µM in [7], 98 µM in assay [8], more than 100 µM in [9] and 93.3 µM in assay [10].

Turning to `CCCCCc1nnc(NS(=O)(=O)c2ccc(NC(=O)OCC(C)C)cc2)s1`, the TGI in assay [1] is more than 100 µM; in assay [2], more than 100 µM; in assay [3], 97.7 µM; in [4], more than 100 µM; in [5] it was 54 µM; in assay [6], 86.9 µM. Also, the concentration for total growth inhibition (TGI) was more than 100 µM in assay [7], 64.2 µM in [8], more than 100 µM in [9] and more than 100 µM in assay [10].

On to `CSc1cc(-c2ccccn2)nc(-c2ccccn2)c1`, for which the TGI is 11.4 µM in assay [1]; 3.58 µM in [2]; 8.99 µM in assay [3]; 1.52 µM in [4]; more than 100 µM in assay [5]; 5 µM in assay [6]. The TGI in assay [7] was 11.5 µM; in [8], 6.06 µM; in [9] it was 10.8 µM; in [10] it was 1.64 µM.

As to `O=C(c1ccccc1)n1cc(-c2ccccc2)c2c(=O)[nH]cnc21`, the concentration for total growth inhibition (TGI) in [1], in [2], in [3], in assay [4], in assay [5] and in [6] was more than 100 µM each time. The total growth inhibition concentration (TGI) in assay [7], in [8], in assay [9] and in [10] was more than 100 µM throughout.

In the case of `COc1cc(CNc2cnc3cc(N)ccc3n2)cc(OC)c1OC`, the total growth inhibition concentration (TGI) in assay [1] was more than 100 µM; in assay [2], more than 100 µM; in [3], more than 100 µM; in assay [4], more than 100 µM; in assay [5] it was more than 100 µM; in [6] it was 41.1 µM. The total growth inhibition concentration (TGI) was 80.8 µM in assay [7], 42.4 µM in assay [8], 53 µM in assay [9] and more than 100 µM in assay [10].

For `COC1CC(OC2C(C)OC(OC3C(C)OC(OC4C(O)CC(O[C@H]5CC[C@@]6(C)C(=CC[C@]7(O)[C@@H]6C[C@@H](OC(C)=O)[C@@]6(C)[C@]7(O)CC[C@@]6(O)C(C)=O)C5)OC4C)CC3OC)CC2OC)OC(C)C1O` (stereo not given in full), the TGI in [1], in assay [2], in assay [3], in assay [4], in assay [5] and in assay [6] was more than 12.5 µM each time. For the same compound, the TGI in assay [7], in [8], in [9] and in assay [10] was more than 12.5 µM in each case.

`Cc1ccc(-n2cc(-c3ccc(Cl)cc3)c3c(N/N=C4\SCC(=O)N4C)ncnc32)cc1`: the concentration for total growth inhibition (TGI) in [1] is 10.6 µM; in assay [2], 26.6 µM; in [3], more than 100 µM; in assay [4] it was more than 100 µM; in [5], more than 100 µM; in assay [6], more than 100 µM. The TGI is 9.37 µM in [7], 33.9 µM in [8], 13.8 µM in assay [9] and more than 100 µM in [10].

In the case of `COC(=O)C1=C(OC(=O)/C=C/c2ccccc2)C(C(=O)OC)[C@@]2(O)[C@@H](C(=O)OC)[C@H](C)C[C@@H]1[C@@H]2C(=O)OC` (stereo not given in full), the concentration for total growth inhibition (TGI) in [1] is 50 µM; in [2] it was 58.4 µM; in [3], 63.3 µM; in assay [4], 93.2 µM; in assay [5], more than 100 µM; in assay [6], 54.1 µM. Besides, the concentration for total growth inhibition (TGI) was 79.9 µM in [7], 52.6 µM in assay [8], 70.2 µM in assay [9] and more than 100 µM in assay [10].

For the compound `COc1cc(O)c2c(=O)c3c(C)cccc3n(C)c2c1`, the TGI in assay [1], in assay [2], in [3], in [4], in assay [5] and in assay [6] was more than 10 µM each time. For the same compound, the concentration for total growth inhibition (TGI) in assay [7], in [8], in assay [9] and in assay [10] was more than 10 µM each time.

`CCOC(=O)C[n+]1cccc(C2(c3cc4ccccc4[nH]3)OCCO2)c1`: the TGI in assay [1], in assay [2], in [3], in assay [4], in [5] and in assay [6] was more than 100 µM in each case. The TGI in [7], in [8], in assay [9] and in assay [10] was more than 100 µM each time.

With `C(=N\Nc1ccc(-c2nc3ccccc3[nH]2)cc1)/c1c(-c2ccc(Cc3ccccc3)cc2)[nH]c2ccccc12`, the total growth inhibition concentration (TGI) in assay [1] is more than 42.6 µM; in [2] it was more than 100 µM; in [3], 19 µM; in assay [4] it was 23 µM; in assay [5] it was more than 37.3 µM; in assay [6], more than 59.5 µM. Further, the TGI in assay [7] was 27.9 µM; in [8] it was 44.6 µM; in assay [9], more than 100 µM; in assay [10], 49.2 µM.

As for `CC(=O)OCc1cncn1S(=O)(=O)c1ccc(C)cc1`, the total growth inhibition concentration (TGI) in [1], in [2], in assay [3], in assay [4], in [5] and in assay [6] was more than 100 µM throughout. For the same compound, the TGI in assay [7], in assay [8], in [9] and in [10] was more than 100 µM throughout.

Turning to `COC(=O)C1C=CCON2CCc3c(n(C)c4ccccc34)C12` (stereo not given), the TGI in assay [1], in [2], in assay [3], in assay [4], in [5] and in assay [6] was more than 100 µM each time. Further, the concentration for total growth inhibition (TGI) in assay [7], in assay [8], in [9] and in assay [10] was more than 100 µM throughout.

As for `COc1ccc(/C=C2\CCS(=O)(=O)c3ccccc3C2=O)cc1OC`, the TGI in assay [1] was more than 100 µM; in assay [2] it was more than 100 µM; in assay [3], 72.1 µM; in [4], 43.8 µM; in [5], more than 100 µM; in [6], more than 100 µM. In addition, the TGI in assay [7], in [8], in assay [9] and in assay [10] was more than 100 µM each time.

In the case of `c1ccc(CN[C@]23C4C5CC6C7C5C2C7[C@@](NCc2ccccc2)(C64)N3Cc2ccccc2)cc1` (stereo not given in full), the concentration for total growth inhibition (TGI) in [1], in assay [2], in [3], in assay [4], in assay [5] and in assay [6] was more than 100 µM throughout. For the same compound, the TGI in [7], in assay [8], in assay [9] and in assay [10] was more than 100 µM throughout.

Take `CC1(C)O[C@@H](CCl)C[C@H](C#N)O1`: the total growth inhibition concentration (TGI) in [1], in [2], in [3], in assay [4], in assay [5] and in [6] was more than 100 µM throughout. The TGI in assay [7], in assay [8], in assay [9] and in assay [10] was more than 100 µM throughout.

As to `CSCCCS/C1=C/CCCCCCCCCC1`, the total growth inhibition concentration (TGI) in assay [1], in assay [2], in assay [3], in assay [4], in assay [5] and in assay [6] was more than 100 µM each time. The concentration for total growth inhibition (TGI) in [7], in [8], in [9] and in assay [10] was more than 100 µM in each case.
